# According to patent publication US9012435B2, “Glucocorticoids attached to nitrate esters via an aromatic linker in position 21 and their use in ophthalmology” (Nicox S.A., priority 2008, dated 2015):
# Read-outs that look alike come from different tables or passages of the source.
# Assays:
# IL-6 = IL-6 content in aqueous humor (ELISA), ET-1 induced ischemia; assay type: in vivo, rabbit; details: ET-1 treated rabbits; 0.5 mg (equivalent)/eye IVT
# Protocol: (§1) Aqueous humor samples were withdrawn from both anterior and posterior chamber fluids of each eye before ET-1 administration (T0), before the administration of Compound (1) or fluorocinolone acetonide (T2), and at the end of treatments (T6). The same volume of saline were reintroduced every time. The aqueous humor samples were immediately frozen at −80° C. until use.
# (§2) Tumor necrosis factor (TNFα) and interleukin 6 (IL-6) were determined in aqueous humor with a commercial kit using an ELISA method (Amersham Pharmacia Biotech). The minimum detectable concentrations were 0.10 pg/ml for IL-6 and TNFα. The interassay coefficient of variation was 0.7% for all assays.
# VEGF = VEGF content in aqueous humor, ET-1 induced ischemia; assay type: in vivo, rabbit; details: ET-1 treated rabbits; 0.5 mg (equivalent)/eye IVT
# [1] = system: isolated rabbit thoracic aorta preparations; experiment: Assay on vascular tone (vasorelaxation of methoxamine-precontracted aortic rings); details: for EC50: Oryctolagus cuniculus, read-out: EC50 (concentration producing 50% of the maximum relaxation)
# Protocol: The ability of the compounds of the invention to induce vasorelaxation in comparison to precursor compounds was tested in vitro in isolated rabbit thoracic aorta preparations (Wanstall J. C. et al., Br. J. Pharmacol., 134:463-472, 2001). Male New Zealand rabbits (1,8-2 Kg) were used. The animals were anaesthetized with sodium thiopental (50 mg/kg, iv), sacrificed by exsanguinations and then the thorax was opened and the aorta dissected. The aortas were placed immediately in Krebs-HEPES buffer (pH 7.4; composition mM: NaCl 130.0, Kcl 3.7, […] 14.9, KH2PO4 1.2, MgSO4.7H2O 1.2, Glucose 11.0, HEPES 10.0, CaCl2.2H2O 1.6) and cut into ring segments (4-5 mm in length). Each ring was placed in a 5 ml tissue bath filled with Krebs-HEPES buffer (37° C.) aerated with 95% O2 and 5% CO2 and was then attached to a force transducer (Grass FT03), connected to a BIOPAC MP150 System for measurement of the isometric tension^2. The preparations were allowed to equilibrate for 1 h at a resting tension of 2 g with changes of the buffer every 15 minutes and then stimulated by exposure to 90 mM KCl (3 times) with intervening washings. After equilibration, the rings were precontracted submaximally with methoxamine (3 μM) and, when the contraction reach a steady state a cumulative concentration-response curve to the test compounds was obtained. The time intervals between doses were based on the time needed to reach a full a steady state response.
# Responses to test compounds were expressed as a percentage of residual contraction and plotted against concentration of test compound. EC50 values (where EC50 is the concentration producing 50% of the maximum relaxation to the test compound) were interpolated from these plots.
# ophthalmic artery = experiment: Ocular haemodynamics (Color Doppler Imaging, Pourcelot Resistance Index) in ET-1 induced ischemia; assay type: in vivo, rabbit
# Protocol: Haemodynamic evaluations were performed using an eco-color-doppler DynaView TM II SSD-1700 (Aloka Holding Europe AG, Milan, Italy). All animals underwent Color Doppler Imaging (CDI) investigation before ET-1 injection (T0), before the start of drug instillation (T2) and at the end of the drug treatment (T6). Special attention was devoted to the evaluation of ophthalmic and ciliary artery circulation. Blood flow velocities were measured for each vessel and the Pourcelot Resistance Index (RI) was calculated (Galassi F. et al., Acta Opht. Scand Suppl. (2000) 37-38).
# [2] = system: VEGF-induced leakage rat model; experiment: VEGF-induced retinal vascular leakage rat model (Evans blue); assay type: in vivo; details: VEGF 100 ng/eye
# Protocol: Pupils were dilated with 1% topical cyclopentolate hydrochloride to see the needle to guide the intravitreal injection. Recombinant rat vascular endothelial growth factor (VEGF; 100 ng/eye) or VEGF at 100 ng/eye plus test compounds were prepared in 0.5% carboxymethyl cellulose (CMC) in sterile saline and was injected into the vitreous with a 30-gauge needle (Xu, Q., et al. Invest. Ophthalmol. Vis. Sci., 42:789-794, 2001). The compounds of the invention were compared to corresponding steroid cores at equimolar doses. […] Control animals received vehicle. Compound (18) was similarly dosed alongside triamcinolone acetonide for comparison.
# Retinal vascular leakage was measured as described previously (Xu, Q., et al. Invest. Ophthalmol. Vis. Sci., 42:789-794, 2001). After about 18 hours post injection of test compounds, rats were anesthetized with ketamine (80 mg/kg) and xylazine (4 mg/kg) IP. Then 45 mg/kg Evans blue (EB) was injected into the jugular vein. The dye was allowed to circulate for 2 hours. The chest cavity was opened and rats then perfused with 1% formalin in 0.5 M citrate buffer (pH 3.5, 37° C.) through the left ventricle. Retinas were carefully dissected from enucleated eyes, placed in pre-weighed Eppendorf tubes, dried in speed vacuum overnight and dry weights recorded. Evans blue was extracted by incubating each retina in 120 μl formamide for 18 hours at 70° C., centrifuged for 2 hours at 6000 rpm. Absorbance of 60 μl of extract was measured at 620 nm and background absorbance was determined at 740 nm. Net absorbance was calculated by subtracting the background 740 nm from that at 620 nm. Measurement of a standard curve of Evans blue in formamide was also done and Evans blue leakage expressed as μl/g/h was calculated as shown below: [EB(ng/ml)×120 (μl)×1000]/[dry weight retina (mg)×circulation time (h)×plasma EB(ng/ml)×100]
# TNFα = TNFα content in aqueous humor (ELISA), ET-1 induced ischemia; assay type: in vivo, rabbit; details: ET-1 treated rabbits; 0.5 mg (equivalent)/eye IVT
# Protocol: as §1, §2
# retinal tissue = experiment: Retina protection: morphological analysis, ET-1 induced ischemia; assay type: in vivo, rabbit; details: long term ET-1 treatment; 0.5 mg (equivalent)/eye IVT
# Protocol: The eyes of each animal was enucleated, cornea and crystalline were removed and the eyes was paraformaldehyde-fixed. Then samples were dehydrated with increasing alcohol concentration (50°-75°-95°-100°). After 95° alcohol treatment, the eyes were divided into two parts following a longitudinal plain from cornea to insertion of optical nerve. Thus the samples were paraffin-embedded. Section 8 μm thick were stained with Haematoxylin-Eosin. Microscopical fields were registered by digitizing camera applied a light microscope with a 20× and 40× objective. On the digitized images was performed a morphological analysis of retinal tissue.
# Brown Norway rats = experiment: Steroid-induced intraocular pressure (IOP) elevation in rats after intravitreal injection; details: 39.1 μg/eye (25 μg/eye equivalent) intravitreal
# Excerpt: Male Brown Norway rats (250-275 g; Charles River laboratory) were acclimated for a week before IOP measurements. Baseline IOP measurements with Tonolab Tonometer (Tiolat Inc) were done in conscious rats (Pease, M. E., et al J. Glaucoma, 15:512-519, 2006) before intravitreal injection of test compounds. Then the rats were anesthetized with isoflurane inhalation and a drop of 0.5% tetracaine was topically applied on the eyes. Pupils were dilated with 1% topical cyclopentolate hydrochloride and 2.5% phenylephrine HCl to see the needle to aim the intravitreal injection of test compounds. […] For example, to compare to fluocinolone acetonide at both 25 and 50 μg/eye, compound (1) was dosed at 42.4 and 84.7 μg/eye, respectively. The des-nitro analog of compound (1) was dosed at 39.1 μg/eye (equivalent for 25 μg FC). Control animals received vehicle.
# Five measurements were averaged for each time point. IOP measurements were taken at one and two weeks after intravitreal injection of test compounds.
# [3] = rabbit aortic rings precontracted with methoxamine 3 μM
structure (smiles),measurement,setting,value
"COc1cc(C(=O)OCCCCO[N+](=O)[O-])ccc1OC(=O)OCC(=O)[C@@]12OC(C)(C)O[C@@H]1CC1C3C[C@H](F)C4=CC(=O)C=C[C@]4(C)[C@@]3(F)[C@@H](O)C[C@@]12C (stereo partly drawn) [Compound (1), 4-(nitrooxy)butyl 4-((2-((6S,9R,10S,11S,13S,16R,17S)-6,9-difluoro-11-hydroxy-16,17-16,17-(1-methylethylidenebis(oxy))-10,13-dimethyl-3-oxo-6,7,8,9,10,11,12,13,14,15,16,17-dodecahydro-3H-cyclopenta[a]phenanthren-17-yl)-2-oxoethoxy)carbonyloxy)-3-methoxybenzoate]",IL6 content in aqueous humor,IL-6,15.70 ± 1.73 pg/mL
same,VEGF content in aqueous humor,VEGF,105.79 ± 1.98 pg/mL
same,EC50,[1],2200 nM
same,Resistence Index,"ophthalmic artery; After 2 weeks (before drug instillation, T2)",0.43 ± 0.08
same,Resistence Index,"ophthalmic artery; After 6 weeks (end of drug treatment), 0.5 mg (equivalent)/eye IVT",0.41 ± 0.03
same,Resistence Index,ophthalmic artery; Basal,0.43 ± 0.06
same,inhibition of VEGF-induced leakage,"[2]; 42.4 μg/eye intravitreal (equimolar to 25 μg/eye FC), 18 hours after injection",77.1%
same,TNFα content in aqueous humor,TNFα,18.93 ± 0.98 pg/mL
same,ET-1 induced morphological changes of retinal tissue,retinal tissue,not equally present
"COc1cc(C(=O)OCCCCC(CO[N+](=O)[O-])O[N+](=O)[O-])ccc1OC(=O)OCC(=O)[C@@]12OC(C)(C)O[C@@H]1CC1C3C[C@H](F)C4=CC(=O)C=C[C@]4(C)[C@@]3(F)[C@@H](O)C[C@@]12C (stereo partly drawn) [Compound (3), 5,6-bis(nitrooxy)hexyl 4-((2-((6S,9R,10S,11S,13S,16R,17S)-6,9-difluoro-11-hydroxy-16,17-((1-methylethylidene)bis(oxy))-10,13-dimethyl-3-oxo-6,7,8,9,10,11,12,13,14,15,16,17-dodecahydro-3H-cyclopenta[a]phenanthren-17-yl)-2-oxoethoxy)carbonyloxy)-3-methoxybenzoate]",EC50,[1]; [3],210 ± 70 nM
"COc1cc(C(=O)OCCOCCOCCO[N+](=O)[O-])ccc1OC(=O)OCC(=O)[C@@]12OC(C)(C)O[C@@H]1CC1C3C[C@H](F)C4=CC(=O)C=C[C@]4(C)[C@@]3(F)[C@@H](O)C[C@@]12C (stereo partly drawn) [Compound (5), 2-(2-(2-(nitrooxy)ethoxy)ethoxy)ethyl 4-((2-((6S,9R,10S,11S,13S,16R,17S)-6,9-difluoro-11-hydroxy-16,17-((1-methylethylidene)bis(oxy))-10,13-dimethyl-3-oxo-6,7,8,9,10,11,12,13,14,15,16,17-dodecahydro-3H-cyclopenta[a]phenanthren-17-yl)-2-oxoethoxy)carbonyloxy)-3-methoxybenzoate]",EC50,[1]; [3],830 ± 250 nM
"CC1(C)O[C@@H]2CC3C4C[C@H](F)C5=CC(=O)C=C[C@]5(C)[C@@]4(F)[C@@H](O)C[C@]3(C)[C@]2(C(=O)COC(=O)Oc2cc(C(=O)OCCCCO[N+](=O)[O-])cc(O)c2O)O1 (stereo partly drawn) [Compound (6), 4-(nitrooxy)butyl 3-((2-((6S,9R,10S,11S,13S,16R,17S)-6,9-difluoro-11-hydroxy-16,17-((1-methylethylidene)bis(oxy))-10,13-dimethyl-3-oxo-6,7,8,9,10,11,12,13,14,15,16,17-dodecahydro-3H-cyclopenta[a]phenanthren-17-yl)-2-oxoethoxy)carbonyloxy)-4,5-dihydroxybenzoate]",EC50,[1]; [3],1440 ± 410 nM
"CC1(C)O[C@@H]2CC3C4CCC5=CC(=O)C=C[C@]5(C)[C@@]4(F)[C@@H](O)C[C@]3(C)[C@]2(C(=O)COC(=O)Oc2cc(C(=O)OCCCCO[N+](=O)[O-])cc(O)c2O)O1 (stereo partly drawn) [Compound (10), 4-(nitrooxy)butyl 3-((2-((9R,10S,11S,13S,16R,17S)-9-fluoro-11-hydroxy-16,17-((1-methylethylidene)bis(oxy))-10,13-dimethyl-3-oxo-6,7,8,9,10,11,12,13,14,15,16,17-dodecahydro-3H-cyclopenta[a]phenanthren-17-yl)-2-oxoethoxy)carbonyloxy)-4,5-dihydroxybenzoate]",EC50,[1]; [3],2350 ± 980 nM
"COc1cc(C(=O)OCCCCO[N+](=O)[O-])ccc1OC(=O)OCC(=O)[C@@]12OC(C)(C)O[C@@H]1CC1C3CCC4=CC(=O)C=C[C@]4(C)[C@@]3(F)[C@@H](O)C[C@@]12C (stereo partly drawn) [Compound (18), 4-(nitrooxy)butyl 4-((2-((9R,10S,11S,13S,16R,17S)-9-fluoro-11-hydroxy-16,17-(1-methylethylidenebis(oxy))-10,13-dimethyl-3-oxo-6,7,8,9,10,11,12,13,14,15,16,17-dodecahydro-3H-cyclopenta[a]phenanthren-17-yl)-2-oxoethoxy)carbonyloxy)-3-methoxybenzoate]",EC50,[1]; [3],1560 nM
same,reduction of VEGF-induced leakage,"[2]; dose equivalent to 10 μg/eye triamcinolone acetonide, intravitreal",54.3%
"CC1(C)O[C@@H]2C[C@H]3[C@@H]4CCC5=CC(=O)C=C[C@]5(C)[C@@]4(F)[C@@H](O)C[C@]3(C)[C@]2(C(=O)CO)O1 [TAAC, Triamcinolone acetonide]",EC50 (concentration producing 50% of the maximum relaxation),[1]; [3],no effect
same,reduction of VEGF-induced leakage,[2]; 10 μg/eye intravitreal,67.5%
"CCCCOC(=O)c1ccc(OC(=O)OCC(=O)C23OC(C)(C)OC2CC2C4CC(F)C5=CC(=O)C=CC5(C)C4(F)C(O)CC23C)c(OC)c1 [des-nitro analog of compound (1), Butyl 4-((2-((6S,9R,10S,11S,13S,16R,17S)-6,9-difluoro-11-hydroxy-16,17-16,17-(1-methylethylidenebis(oxy))-10,13-dimethyl-3-oxo-6,7,8,9,10,11,12,13,14,15,16,17-dodecahydro-3H-cyclopenta[a]phenanthren-17-yl)-2-oxoethoxy)carbonyloxy)-3-methoxybenzoate]",IOP compared to compound (1) at 42.4 μg/eye (FIG. 4),Brown Norway rats,increase in IOP
